Structures can show the parent of a compound that is named as a salt. Where two headings read alike, the source gives them in different places.
Assays:
human arginase I (ARG I) = target: T1, human arginase I (ARG I) (Homo sapiens, UniProt P05089); test: Inhibition of arginase I, spectrophotometric urea assay at 530 nm; type: biochemical; details: read-out: Potency (ARG I)
T1 sequence (P05089 1-322): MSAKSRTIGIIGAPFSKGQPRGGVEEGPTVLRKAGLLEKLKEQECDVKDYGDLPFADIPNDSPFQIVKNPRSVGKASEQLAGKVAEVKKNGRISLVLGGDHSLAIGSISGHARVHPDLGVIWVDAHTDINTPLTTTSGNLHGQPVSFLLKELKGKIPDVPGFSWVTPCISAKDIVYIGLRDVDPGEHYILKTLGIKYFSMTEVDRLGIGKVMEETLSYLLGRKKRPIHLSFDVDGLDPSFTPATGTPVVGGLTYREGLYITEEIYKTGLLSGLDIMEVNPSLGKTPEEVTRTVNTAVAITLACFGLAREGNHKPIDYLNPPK
Procedure, shortened: (§1)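 IC50 was derived by regression of OD530 normalized to uninhibited-enzyme controls against log concentration. Urea from 60-min, 37 °C turnover of L-arginine with manganese sulfate was detected after acid o-phthaldialdehyde/primaquine quench and 10 min colour development. Arginase I and II came from 100 ng/ml stocks in pH 7.4 phosphate with ovalbumin.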

arginase II (ARG II) = target: T2, arginase II (ARG II) (Homo sapiens, UniProt P78540); test: Inhibition of arginase II, spectrophotometric urea assay at 530 nm; type: biochemical
T2 sequence (P78540 23-354): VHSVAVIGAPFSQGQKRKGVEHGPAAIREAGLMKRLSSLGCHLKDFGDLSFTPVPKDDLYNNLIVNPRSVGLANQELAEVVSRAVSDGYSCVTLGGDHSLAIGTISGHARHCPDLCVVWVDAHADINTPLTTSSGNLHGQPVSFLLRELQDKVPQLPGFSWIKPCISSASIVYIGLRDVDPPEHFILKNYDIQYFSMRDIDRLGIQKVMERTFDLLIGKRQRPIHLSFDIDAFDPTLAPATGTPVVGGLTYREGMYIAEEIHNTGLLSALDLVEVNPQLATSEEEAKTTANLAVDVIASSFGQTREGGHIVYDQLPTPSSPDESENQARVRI
Procedure, shortened: as §1

[1] = Formula I compounds, Table 2, read-out: Potency (ARG II)
[2] = Formula II compounds, Table 2-A
[3] = Formula II compounds, Table 2-A, read-out: Potency (ARG)

| Structure (SMILES) | IC50 (human arginase I (ARG I); Formula I compounds, Table 2) [nM] | IC50 (arginase II (ARG II); [1]) [nM] | IC50 (human arginase I (ARG I); [2]) [nM] | IC50 (arginase II (ARG II); [3]) [nM] |
| --- | --- | --- | --- | --- |
| CNC(CCCCB(O)O)(CCCNCc1ccc(Cl)cc1)C(=O)O (centres unmarked) [compound 139, 6-borono-2-(3-(4-chlorobenzylamino)propyl)-2-(methylamino)hexanoic acid dihydrochloride] | 0.1 to 250 | 0.1 to 250 |  |  |
| NC(CCCCB(O)O)(C(=O)O)C1CCNCC1 (centres unmarked) [Example 88-A, 2-amino-6-borono-2-(piperidin-4-yl)hexanoic acid dihydrochloride] |  |  | 251 to 1000 | 251 to 1000 |
| Cc1ccc(NC(=S)N2CCC(C(N)(CCCCB(O)O)C(=O)O)CC2)cc1Cl (centres unmarked) [Example 44-A, 2-amino-6-borono-2-(1-(3-chloro-4-methylphenylcarbamothioyl)piperidin-4-yl)hexanoic acid] |  |  | 251 to 1000 | 1000 to 2000 |
| NC(CCCCB(O)O)(CCOc1ccc(Cl)cc1)C(=O)O (centres unmarked) [compound 92, 2-amino-6-borono-2-(2-(4-chlorophenoxy)ethyl)hexanoic acid hydrochloride] | > 5000 | > 5000 |  |  |
| NC(CCCCB(O)O)(C(=O)O)C1CCN(Cc2cccc3c2OCCC3)CC1 (centres unmarked) [Example 60-A, 2-amino-6-borono-2-(1-(chroman-8-ylmethyl)piperidin-4-yl)hexanoic acid dihydrochloride] |  |  | 0.1 to 250 | 0.1 to 250 |
| Cc1cc(CN2CCC(C(N)(CCCCB(O)O)C(=O)O)CC2)n(C)n1 (centres unmarked) [Example 62-A, 2-amino-6-borono-2-(1-((1,3-dimethyl-1H-pyrazol-5-yl)methyl)piperidin-4-yl)hexanoic acid dihydrochloride] |  |  | 251 to 1000 | 251 to 1000 |
| CN(CCO)CCC(N)(CCCCB(O)O)C(=O)O (centres unmarked) [compound 43, 2-amino-6-borono-2-(2-((2-hydroxyethyl)(methyl)amino)ethyl)hexanoic acid dihydrochloride] | 1000 to 2000 | 2000 to 5000 |  |  |
| NC(CCCCB(O)O)(C(=O)O)C1CCN(C(=S)Nc2ccc(Cl)cc2)C1 [35-A, 2-amino-6-borono-2-((S)-1-(4-chlorophenylcarbamothioyl)-pyrrolidin-3-yl)hexanoic acid hydrochloride] |  |  | 251 to 1000 | 251 to 1000 |
| NC(CCCCB(O)O)(C(=O)O)C1CCN(Cc2cccc3ccccc23)CC1 (centres unmarked) [Example 98-A, 2-amino-6-borono-2-(1-(naphthalen-1-ylmethyl)piperidin-4-yl)hexanoic acid dihydrochloride] |  |  | 0.1 to 250 | 0.1 to 250 |
| NC(CCCCB(O)O)(CCN1CCC(=O)CC1)C(=O)O (centres unmarked) [compound 38, 2-amino-6-borono-2-(2-(4-oxopiperidin-1-yl)ethyl)hexanoic acid dihydrochloride] | 2000 to 5000 | 2000 to 5000 |  |  |
| CCN(CC)CCC(N)(CCCCB(O)O)C(=O)O (centres unmarked) [compound 37, 2-amino-6-borono-2-(2-(diethylamino)ethyl)hexanoic acid dihydrochloride] | 251 to 1000 | 1000 to 2000 |  |  |
| NC(CCCCB(O)O)(C(=O)O)C1CCN(C(=O)Cc2ccc(F)cc2)CC1 (centres unmarked) [28-A, 2-amino-6-borono-2-{1-[(4-fluorophenyl)acetyl]-piperidin-4-yl}hexanoic acid hydrochloride] |  |  | 2000 to 5000 | 2000 to 5000 |
| NC(CCCCB(O)O)(CNCc1ccccc1)C(=O)O (centres unmarked) [compound 84, 2-amino-2-((benzylamino)methyl)-6-boronohexanoic acid] | 2000 to 5000 | > 5000 |  |  |
| NC(CCCCB(O)O)(C(=O)O)C1CCN(Cc2ccc(OC(F)(F)F)cc2)CC1 (centres unmarked) [Example 100-A, 2-amino-6-borono-2-(1-(4-(trifluoromethoxy)benzyl)piperidin-4-yl)hexanoic acid dihydrochloride] |  |  | 0.1 to 250 | 0.1 to 250 |
| COC[C@H]1CCCN1CC[C@](N)(CCCCB(O)O)C(=O)O [compound 3, (R)-2-amino-6-borono-2-(2-((R)-2-(methoxymethyl)pyrrolidin-1-yl)ethyl)hexanoic acid dihydrochloride] | 1000 to 2000 | 1000 to 2000 |  |  |
| NC(CCCCB(O)O)(C(=O)O)C(O)CCC(F)(F)F (centres unmarked) [compound 111, 2-amino-2-(4-boronobutyl)-6,6,6-trifluoro-3-hydroxyhexanoic acid hydrochloride] | 2000 to 5000 | 2000 to 5000 |  |  |
| NC(CCCCB(O)O)(C(=O)O)C1CCN(c2ccc(C(F)(F)F)cn2)CC1 (centres unmarked) [1-A, 2-amino-6-borono-2-(5′Trifluoromethyl-3,4,5,6-tetrahydro-2H-[1,2′]bipyridinyl-4-yl)-hexanoic acid hydrochloride] |  |  | 251 to 1000 | 1000 to 2000 |
| CNC(CCCCB(O)O)(CCCNCc1ccc(Cl)c(Cl)c1)C(=O)O (centres unmarked) [compound 136, 6-borono-2-(3-(3,4-dichlorobenzylamino)propyl)-2-(methylamino)hexanoic acid dihydrochloride] | 0.1 to 250 | 0.1 to 250 |  |  |
| NC(CCCCB(O)O)(C(=O)O)C1CCN(Cc2ccc(C(F)(F)F)cc2)CC1 (centres unmarked) [Example 93-A, 2-amino-6-borono-2-(1-(4-(trifluoromethyl)benzyl)piperidin-4-yl)hexanoic acid] |  |  | 251 to 1000 | 251 to 1000 |
| CN(CCC(N)(CCCCB(O)O)C(=O)O)Cc1ccc(F)c(C(F)(F)F)c1 (centres unmarked) [compound 48, 2-amino-6-borono-2-(2-((4-fluoro-3-(trifluoromethyl)benzyl)(methyl)amino)ethyl)hexanoic acid dihydrochloride] | 2000 to 5000 | > 5000 |  |  |
| CC(C)CC(CO)NCC(N)(CCCCB(O)O)C(=O)O [compound 88, 2-amino-6-borono-2-(((S)-1-hydroxy-4-methylpentan-2-ylamino)methyl)hexanoic acid dihydrochloride] | 2000 to 5000 | 1000 to 2000 |  |  |
| NC(CCCCB(O)O)(CN1CCCCC1)C(=O)O (centres unmarked) [compound 79, 2-amino-6-borono-2-(piperidin-1-ylmethyl)hexanoic acid] | 2000 to 5000 | > 5000 |  |  |
| NC(CCCCB(O)O)(CCN1CCC(c2ccc(Cl)cc2)CC1)C(=O)O (centres unmarked) [compound 121, 2-amino-6-borono-2-(2-(4-(4-chlorophenyl)piperidin-1-yl)ethyl)hexanoic acid dihydrochloride] | 251 to 1000 | 251 to 1000 |  |  |
| CC1(C(=O)O)CCN(CCC(N)(CCCCB(O)O)C(=O)O)CC1 (centres unmarked) [compound 57, 1-(3-amino-7-borono-3-carboxyheptyl)-4-methylpiperidine-4-carboxylic acid] | 1000 to 2000 | 1000 to 2000 |  |  |
| COc1cccc(-c2ccccc2CN2CCC(C(N)(CCCCB(O)O)C(=O)O)CC2)c1 (centres unmarked) [Example 58-A, 2-amino-6-borono-2-(1-((3′-methoxybiphenyl-2-yl)methyl)piperidin-4-yl)hexanoic acid dihydrochloride] |  |  | 0.1 to 250 | 251 to 1000 |
| NC(CCCCB(O)O)(CCN1CCc2ccccc2C1)C(=O)O (centres unmarked) [compound 36, 2-amino-6-borono-2-(2-(3,4-dihydroisoquinolin-2(1H)-yl)ethyl)hexanoic acid dihydrochloride] | 251 to 1000 | 1000 to 2000 |  |  |
| NC(CCCCB(O)O)(C(=O)O)C1CCN(Cc2ccc(Cl)cc2Cl)CC1 (centres unmarked) [Example 97-A, 2-amino-6-borono-2-(1-(2,4-dichlorobenzyl)piperidin-4-yl)hexanoic acid dihydrochloride] |  |  | 251 to 1000 | 251 to 1000 |
| CCN1Cc2ccccc2CC1CCC(N)(CCCCB(O)O)C(=O)O (centres unmarked) [compound 130, 2-amino-6-borono-2-(2-(2-ethyl-1,2,3,4-tetrahydroisoquinolin-3-yl)ethyl)hexanoic acid dihydrochloride] | 0.1 to 250 | 251 to 1000 |  |  |

— US9994594B2, “Inhibitors of arginase and their therapeutic applications” (MARS, INCORPORATED, priority 2010, dated 2018)
